Several values for one entry are separate records, joined by “and”; a condition that tells them apart may be missing. Identical values can stand only once.
Target: pVHL19 (VCB complex: VHL with Elongin B and Elongin C) (Homo sapiens, UniProt P40337)
Experiment: ITC titration against VCB, short VHL isoform
Type: binding
Description: Titrations were performed on an ITC200 micro-calorimeter (GE Healthcare). […] The final DMSO concentration was 0.15% v/v. VBC protein experiments were carried out in a buffer containing 20 mM Bis-tris propane, 150 mM NaCl, 1 mM TCEP, 0.15% v/v DMSO, pH 7.4. The titrations consisted of 19 injections of 2 μL compounds solution (150 μM, in the syringe) at a rate of 2 s/μL at 120 s time intervals into the VCB protein solution (20 μM, in the cell). An initial injection of compound solution (0.4 μL) was made and discarded during data analysis. All experiments were performed at 25° C., whilst stirring the syringe at 600 rpm. The data were fitted to a single binding site model to obtain the stoichiometry n, the dissociation constant Kd and the enthalpy of binding ΔH using the Microcal LLC ITC200 Origin software provided by the manufacturer.

Sequence of pVHL19 (VCB complex: VHL with Elongin B and Elongin C) (P40337 54-213): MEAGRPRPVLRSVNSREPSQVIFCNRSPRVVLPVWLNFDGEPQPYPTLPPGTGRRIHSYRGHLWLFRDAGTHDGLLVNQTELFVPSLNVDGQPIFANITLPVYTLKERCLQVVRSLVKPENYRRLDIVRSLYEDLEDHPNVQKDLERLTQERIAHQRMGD
Sequence of pVHL19 (VCB complex: VHL with Elongin B and Elongin C) (Q15370 1-104 partner limits assumed): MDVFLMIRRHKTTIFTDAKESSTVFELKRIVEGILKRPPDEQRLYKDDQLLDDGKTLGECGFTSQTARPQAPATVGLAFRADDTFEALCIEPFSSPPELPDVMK
Sequence of pVHL19 (VCB complex: VHL with Elongin B and Elongin C) (Q15369 17-112 partner limits assumed): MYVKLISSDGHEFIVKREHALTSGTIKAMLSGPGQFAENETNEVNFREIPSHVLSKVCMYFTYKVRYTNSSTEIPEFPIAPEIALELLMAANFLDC

- apparent binding enthalpy ΔH (ITC against VCB): -12.3 kcal/mol
- avidity (cooperativity α) compared to VH032 (ITC against VCB): > 18 fold
- entropic term −TΔS (ITC against VCB): 1.4 kcal/mol
- Kd (ITC, pVHL19): 11 ± 2 nM
- ΔG (ITC, pVHL19): -10.9 ± 0.1 kcal/mol
- ΔH (ITC, pVHL19): -12.3 ± 0.7 kcal/mol
- α (cooperativity/avidity) (ITC, pVHL19): 18
- −TΔS (ITC, pVHL19): 1.4 ± 0.8 kcal/mol
- n (stoichiometry) (ITC, pVHL19, 25° C.): 0.6 and 0.6 ± 0.01
Structure (SMILES): Cc1ncsc1-c1ccc(CNC(=O)[C@@H]2C[C@@H](O)CN2C(=O)[C@@H](NC(=O)COCCOCCOCCOCCOCCOCC(=O)N[C@H](C(=O)N2C[C@H](O)C[C@H]2C(=O)NCc2ccc(-c3scnc3C)cc2)C(C)(C)C)C(C)(C)C)cc1 [CM11, N^1,N^20-bis((S)-1-((2S,4R)-4-hydroxy-2-((4-(4-methylthiazol-5-yl)benzyl)carbamoyl)pyrrolidin-1-yl)-3,3-dimethyl-1-oxobutan-2-yl)-3,6,9,12,15,18-hexaoxaicosanediamide]
